Paper PMC11509018, “Evaluation of the Role of Tanshinone I in an In Vitro System of Charcot-Marie-Tooth Disease Type 2N” (International Journal of Molecular Sciences, 2024)
Substitutions are numbered along the chain they refer to.

Tests used:
AlaRS^E337K = molecular target: T1, AlaRS^E337K (Homo sapiens, UniProt P49588, E337K); experiment: Biolayer interferometry (BLI); assay type: binding; conditions: immobilized AlaRS^E337K, mean ± SD, triplicate
T1 construct: made in house; host or cells: E. coli BL21 (DE3), pET-21a
T1 sequence (P49588 1-968 E337K): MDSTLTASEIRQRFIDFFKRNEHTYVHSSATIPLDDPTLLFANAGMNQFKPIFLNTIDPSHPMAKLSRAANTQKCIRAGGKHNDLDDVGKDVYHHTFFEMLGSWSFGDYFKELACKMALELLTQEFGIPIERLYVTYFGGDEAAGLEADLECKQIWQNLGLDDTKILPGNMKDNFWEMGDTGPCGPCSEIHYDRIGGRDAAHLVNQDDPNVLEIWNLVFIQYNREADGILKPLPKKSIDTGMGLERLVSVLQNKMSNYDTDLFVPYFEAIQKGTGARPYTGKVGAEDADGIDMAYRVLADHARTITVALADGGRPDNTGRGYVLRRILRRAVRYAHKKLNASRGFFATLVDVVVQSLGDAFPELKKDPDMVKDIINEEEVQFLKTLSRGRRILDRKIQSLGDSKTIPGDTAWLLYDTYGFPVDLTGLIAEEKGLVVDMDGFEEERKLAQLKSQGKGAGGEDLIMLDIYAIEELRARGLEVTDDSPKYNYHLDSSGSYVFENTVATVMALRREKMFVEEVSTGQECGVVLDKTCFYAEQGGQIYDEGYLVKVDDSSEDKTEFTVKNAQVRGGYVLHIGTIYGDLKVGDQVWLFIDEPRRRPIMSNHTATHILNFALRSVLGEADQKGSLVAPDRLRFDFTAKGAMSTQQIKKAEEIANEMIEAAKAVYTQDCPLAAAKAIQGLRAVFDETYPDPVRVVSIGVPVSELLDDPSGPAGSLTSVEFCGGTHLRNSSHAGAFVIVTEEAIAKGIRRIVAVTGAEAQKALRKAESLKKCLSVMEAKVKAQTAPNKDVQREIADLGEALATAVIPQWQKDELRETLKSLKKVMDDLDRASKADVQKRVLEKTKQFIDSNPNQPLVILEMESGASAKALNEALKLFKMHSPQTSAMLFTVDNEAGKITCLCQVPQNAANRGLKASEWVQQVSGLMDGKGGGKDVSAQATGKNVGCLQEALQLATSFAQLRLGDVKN
Method: (§1) Furthermore, we examined the interaction of Tanshinone I with additional AlaRS CMT mutants capable of binding to Nrp1 and causing conformational changes by BLI and proteolysis assays on additional related mutants. […] To further quantify the binding of small molecules to mutant proteins, binding experiments with AlaRS^R329H proteins and small molecules were conducted using an Octet R8 system (ForteBio, Fremont, CA, USA). Purified His-tagged AlaRS^R329H proteins (500 μg/mL) were captured on Ni-NTA biosensors (ForteBio, Fremont, CA, USA), achieving a saturation response of 4–5 nm after 300 s. The biosensors were then transferred to Octet buffer (PBS with 0.01% Tween 20) for 180 s to remove loosely bound, nonspecific proteins and to establish a stable baseline. Following this, the sensors were immersed in diluted Tanshinone I (2.5–100 μM in assay buffer) for 120 s to record the association signal, and then transferred back into Octet buffer to monitor the dissociation signal for 120 s. Reference wells containing buffer instead of Tanshinone I were included to correct for baseline shifts. Additionally, a parallel set of Ni-NTA sensors in buffer served as negative reference controls to account for nonspecific binding of the compounds to the biosensor surface. The data were processed using a double reference subtraction protocol to eliminate nonspecific signals, background noise, and signal drifts caused by biosensor variability. All assays were performed in 96-well black plates with a total volume of 200 μL per well at 30 °C. Data analysis, including correction and curve fitting, was carried out using Octet® Analysis Studio 12.2.2.26. The experiment was repeated three times.

AlaRS^N71Y = molecular target: T2, AlaRS^N71Y (Homo sapiens, UniProt P49588, N71Y); experiment: Biolayer interferometry (BLI); assay type: binding; conditions: immobilized AlaRS^N71Y, mean ± SD, triplicate
T2 construct: made in house; host or cells: E. coli BL21 (DE3), pET-21a
T2 sequence (P49588 1-968 N71Y): T1 sequence (P49588 1-968 E337K) with N71Y, K337E
Method: as §1

Kd (AlaRS^E337K): 19.2 ± 4.2 µM
Kd (AlaRS^N71Y): 37.8 ± 6.2 µM
SMILES: Cc1coc2c1C(=O)C(=O)c1c-2ccc2c(C)cccc12 [Tanshinone I]
